Measurements published in PubChem BioAssay AID256 (DTP/NCI, 2004).
Toxic doses and inconclusive results are not listed.

Tested on: CD2F1 mice, L1210 leukemia ip, survival T/C
Assay: NCI In Vivo Anticancer Drug Screen. Data for tumor model L1210 Leukemia (intraperitoneal) in CD2F1 (CDF1) mice
Details: endpoint: mean survival time, higher = longer survival
Procedure, shortened: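 Mice carrying a transplanted tumor received test compound or vehicle alone. The value is the measurement in the treated group divided by that in the vehicle-treated control group.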

[1] = dose: 100.0 mg/kg/injection, schedule: Q04DX003 (ip), vehicle: saline with Tween-80
[2] = dose: 200.0 mg/kg/injection, schedule: Q04DX003 (ip), vehicle: saline with Tween-80

In the case of `CN(C)S(=O)(=O)C#Cc1ccccc1`, the T/C [1] is reported as 104 % of control, the T/C [2] is reported as 97 % of control and the T/C (dose: 400.0 mg/kg/injection, schedule: Q04DX003 (ip), vehicle: saline with Tween-80) is reported as 102 % of control.
In the case of `Cn1c(CC#N)c(C[N+](C)(C)C)c2ccccc21`, the T/C (dose: 2.5 mg/kg/injection, schedule: Q01DX009 (ip), vehicle: saline with Tween-80) is reported as 97 % of control, the T/C (dose: 5.0 mg/kg/injection, schedule: Q01DX001 (ip), vehicle: saline with Tween-80) is reported as 102 % of control and the T/C (dose: 5.0 mg/kg/injection, schedule: Q01DX009 (ip), vehicle: saline with Tween-80) is reported as 97 % of control. For the same compound, the T/C (dose: 10.0 mg/kg/injection, schedule: Q01DX001 (ip), vehicle: saline with Tween-80) was 96 % of control.
For `ClCCOC(c1ccc(Cl)cc1)c1ccc(Cl)cc1`, the T/C (dose: 100.0 mg/kg/injection, schedule: Q04DX003 (ip), vehicle: saline + alcohol) was 96 % of control, the T/C (dose: 200.0 mg/kg/injection, schedule: Q04DX003 (ip), vehicle: saline + alcohol) was 94 % of control and the T/C (dose: 400.0 mg/kg/injection, schedule: Q04DX003 (ip), vehicle: saline + alcohol) was 100 % of control.
For `O=C(O)/C=C/C(=O)Nc1ccc(N=Nc2ccccc2)cc1`, the T/C [1] was 93 % of control and the T/C [2] was 98 % of control.
With `O=C1C=C(C2OC(CI)C(O)C2O)C(=O)N1` (stereo unspecified) the T/C (dose: 12.5 mg/kg/injection, schedule: Q01DX005 (ip), vehicle: water) was 109 % of control and the T/C (dose: 25.0 mg/kg/injection, schedule: Q01DX005 (ip), vehicle: water) was 107 % of control.
With `CN(Cc1ccc[n+](Cc2ccc(S(=O)(=O)F)cc2)c1)C(=O)COc1ccc(Cl)c(Cl)c1` the T/C [1] was 98 % of control and the T/C [2] was 96 % of control.
